Data: PMC7515829, “HKDC1 C-terminal based peptides inhibit extranodal natural killer/T-cell lymphoma by modulation of mitochondrial function and EBV suppression” (Leukemia, 2020)

How the values were obtained:
Assay type in all cases: cell-based
HKDC1/VDAC1 [1] = target: T1, HKDC1/VDAC1 (Homo sapiens, UniProt P21796); experiment: IP/WB association of HKDC1 with VDAC1 in SW480 cells; set-up: endogenous in cells; conditions: 0.5 µM peptide, 6 h, compared with CTL group, n = 5 (Fig S3)
Experimental: (§1) Immunoprecipitation (IP) and Western Blotting (WB). Cell lysates were pre-cleared by pre-immune IgG plus Protein A agarose beads for 2 hours, and the supernatants were immunoprecipitated by the indicated antibodies and a 50% slurry of Protein A Agarose beads overnight at 4 °C (9). After washing with buffer containing 50 mM Tris, pH 7.5, 150 mM NaCl, 1% NP-40, and 0.5% deoxycholate with protease inhibitors, proteins were released, separated on 10% SDS-PAGE gels, blotted by primary antibodies, and then simultaneously incubated with the differentially labeled species-specific secondary antibodies, anti-RABBIT IRDye™ 800CW (green) and anti-MOUSE (or goat) ALEXA680 (red). Membranes were scanned and quantitated by the ODYSSEY Infrared Imaging System (LI-COR, NE) (10).
(§2) Figure S3. Peptide Tf-D-HKC8 dissociates HKDC1 from VDAC1 in cancer cells, but little effect on normal cells. Different cells, including HMECS, HANK1 and SW480, were treated by either control (CTL) or Tf-D-HKC8 peptide (0.5µM) for 6 hours, and the cells were used for IP/WB analysis. (a) Representative western blotting bands for IP/WB. (b) Protein quantitation for IP/WB for (a), n=5. *, P<0.05, vs CTL group. Results were expressed as mean ± SEM.

THP1 = experiment: Cell death IC50 by PI staining/FACS; conditions: Human monocytic leukemia/EBV(−), 0.1–15 µM, 6 h (suspension) or 12 h (adherent cells), mean ± SEM, read-out: Peptide IC50 (µM), cell death, THP1
Experimental: (§3) Measurement of apoptosis and cell death. Apoptosis was evaluated by TUNEL assay using the In Situ Cell Death Detection Kit™ (Roche). Cells were fixed in 4% paraformaldehyde and labeled with TUNEL reagents. Stained cells were photographed by a fluorescence microscope (11). For cell death analysis, the propidium iodide (PI) staining was performed by addition of 6.25 µg/ml of PI to the cells, and cell death was immediately evaluated by FACS analysis (3).

NK92 = experiment: Cell death IC50 by PI staining/FACS; conditions: Human natural killer non-Hodgkin’s lymphoma/EBV(−), 0.1–15 µM, 6 h (suspension) or 12 h (adherent cells), mean ± SEM, read-out: Peptide IC50 (µM), cell death, NK92
Experimental: as §3

Namalwa = experiment: Cell death IC50 by PI staining/FACS; conditions: Human Burkitt’s lymphoma/EBV(+), 0.1–15 µM, 6 h (suspension) or 12 h (adherent cells), mean ± SEM, read-out: Peptide IC50 (µM), cell death, Namalwa
Experimental: as §3

MDA-MB-231 = experiment: Cell death IC50 by PI staining/FACS; conditions: Human breast adenocarcinoma/EBV(−), 0.1–15 µM, 6 h (suspension) or 12 h (adherent cells), mean ± SEM, read-out: Peptide IC50 (µM), cell death, MDA-MB-231
Experimental: as §3

MCF7 = experiment: Cell death IC50 by PI staining/FACS; conditions: Human breast adenocarcinoma/EBV(−), 0.1–15 µM, 6 h (suspension) or 12 h (adherent cells), mean ± SEM, read-out: Peptide IC50 (µM), cell death, MCF7
Experimental: as §3

Kasumi-1 = experiment: Cell death IC50 by PI staining/FACS; conditions: Human acute myeloblastic leukemia/EBV(−), 0.1–15 µM, 6 h (suspension) or 12 h (adherent cells), mean ± SEM, read-out: Peptide IC50 (µM), cell death, Kasumi-1
Experimental: as §3

HMECs = experiment: Cell death IC50 by PI staining/FACS; conditions: Human mammary epithelial cells/EBV(−), 0.1–15 µM, 6 h (suspension) or 12 h (adherent cells), mean ± SEM, read-out: Peptide IC50 (µM), cell death, HMECs
Experimental: as §3

MM.1R = experiment: Cell death IC50 by PI staining/FACS; conditions: Human B lymphoblast/EBV(−), 0.1–15 µM, 6 h (suspension) or 12 h (adherent cells), mean ± SEM, read-out: Peptide IC50 (µM), cell death, MM.1R
Experimental: as §3

RPMI 8226 = experiment: Cell death IC50 by PI staining/FACS; conditions: Human B lymphoblast/EBV(−), 0.1–15 µM, 6 h (suspension) or 12 h (adherent cells), mean ± SEM, read-out: Peptide IC50 (µM), cell death, RPMI 8226
Experimental: as §3

Hela = experiment: Cell death IC50 by PI staining/FACS; conditions: Human cervix adenocarcinoma/EBV(−), 0.1–15 µM, 6 h (suspension) or 12 h (adherent cells), mean ± SEM, read-out: Peptide IC50 (µM), cell death, Hela
Experimental: as §3

SW620 = experiment: Cell death IC50 by PI staining/FACS; conditions: Human colorectal adenocarcinoma/EBV(−), 0.1–15 µM, 6 h (suspension) or 12 h (adherent cells), mean ± SEM, read-out: Peptide IC50 (µM), cell death, SW620
Experimental: as §3

HKDC1/VDAC1 [2] = target: T1, HKDC1/VDAC1; experiment: IP/WB association of HKDC1 with VDAC1 in HMECs; set-up: endogenous in cells; conditions: 0.5 µM peptide, 6 h, compared with CTL group, n = 5 (Fig S3)
Experimental: as §1, §2

HKDC1/VDAC1 [3] = target: T1, HKDC1/VDAC1; experiment: IP/WB association of HKDC1 with VDAC1 in HANK1 cells; set-up: endogenous in cells; conditions: 0.5 µM peptide, 6 h, compared with CTL group, n = 5 (Fig S3)
Experimental: as §1, §2

T1 sequence (P21796 2-283 limits assumed): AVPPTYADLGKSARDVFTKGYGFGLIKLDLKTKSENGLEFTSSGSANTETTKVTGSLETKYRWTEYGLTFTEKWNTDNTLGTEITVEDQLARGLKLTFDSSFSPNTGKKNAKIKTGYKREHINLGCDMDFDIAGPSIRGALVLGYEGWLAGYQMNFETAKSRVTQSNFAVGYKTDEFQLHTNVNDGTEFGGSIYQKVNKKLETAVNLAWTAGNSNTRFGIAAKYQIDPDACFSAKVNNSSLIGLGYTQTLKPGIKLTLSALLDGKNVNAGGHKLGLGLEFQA

Substance	association of HKDC1 with VDAC1 in SW480 cells (HKDC1/VDAC1 [1]) [%]	IC50 (THP1) [µM]	IC50 (NK92) [µM]	IC50 (Namalwa) [µM]	IC50 (MDA-MB-231) [µM]	IC50 (MCF7) [µM]	IC50 (Kasumi-1) [µM]	IC50 (HMECs) [µM]	IC50 (MM.1R) [µM]	IC50 (RPMI 8226) [µM]	IC50 (Hela) [µM]	IC50 (SW620) [µM]	association of HKDC1 with VDAC1 in HMECs (HKDC1/VDAC1 [2])	association of HKDC1 with VDAC1 in HANK1 cells (HKDC1/VDAC1 [3]) [%]
HAIYPRH-LQQAQKEN [Tf-D-HKC8]	67	1.8 ± 0.6	0.9 ± 0.4	0.7 ± 0.4	11.6 ± 1.1	> 15	1.8 ± 0.6	> 15	1.6 ± 0.4	1.3 ± 0.6	6.8 ± 0.9	10.2 ± 0.7	little effect	34
HAIYPRH-ITAVAKRLQQAQKEN [Tf-D-HKC15]	–	2.3 ± 0.5	1.5 ± 0.6	0.9 ± 0.3	14.4 ± 0.8	> 15	2.7 ± 0.9	> 15	2.3 ± 0.7	1.9 ± 0.7	9.8 ± 0.6	12.5 ± 0.8	–	–
